According to ChEMBL document CHEMBL1201862, “PubChem BioAssay data set” (2004):
Active and inactive are the calls of the source.

Legend:
HEK293 [1] = experiment: inhibition of NOD1-driven NF-kB reporter – cell-based, luminescence, uHTS, primary screen (AID 1578); type: functional; conditions: Homo sapiens
HEK293 [2] = experiment: cells; type: functional, cell-based; conditions: Homo sapiens
H4 = experiment: Luminescence Cell-Based Dose Response HTS to Identify Activators of 5'UTR Stem-Loop Driven Prion Protein mRNA Translation in H4 Neuroglioblastoma Cells. [Related pubchem assays: 1829 (Project Summary), 1814 (Primary HTS)]; type: functional; conditions: Homo sapiens
HEK293 [3] = experiment: cells; type: functional, cell-based; conditions: Homo sapiens; remark: listed apart in the source
[4] = molecular target: Nucleotide-binding oligomerization domain-containing protein 2 (Homo sapiens, UniProt Q9HC29); experiment: inhibition of NOD2-driven NF-kB reporter – cell-based, luminescence, uHTS, HEK293 (AID 1566); type: functional
HEK293 [5] = experiment: NOD2 signaling inhibitors in MDP-stimulated cells, cell-based, uHTS, luminescence (AID 2001); type: functional; conditions: Homo sapiens
HEK293 [6] = experiment: cells; type: functional, cell-based; conditions: Homo sapiens; remark: listed apart in the source
HEK293 [7] = experiment: EBV LMP1 TES2 canonical NF-kB signalling blockers – cell-based, HEK293, luciferase, cherry-pick, dose response (AID 588343); type: functional; conditions: Homo sapiens
[8] = molecular target: T1, Short transient receptor potential channel 4 (Mus musculus, UniProt Q9QUQ5); experiment: block of DAMGO-driven TRPC4 calcium entry – cell-based, HEK293 TRPC4/mu-opioid, Fluo-4 calcium, dose response (AID 434942); type: functional;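 note: potency of inhibitors blocking the TRPC4 calcium response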
T1 sequence (Q9QUQ5 whole entry): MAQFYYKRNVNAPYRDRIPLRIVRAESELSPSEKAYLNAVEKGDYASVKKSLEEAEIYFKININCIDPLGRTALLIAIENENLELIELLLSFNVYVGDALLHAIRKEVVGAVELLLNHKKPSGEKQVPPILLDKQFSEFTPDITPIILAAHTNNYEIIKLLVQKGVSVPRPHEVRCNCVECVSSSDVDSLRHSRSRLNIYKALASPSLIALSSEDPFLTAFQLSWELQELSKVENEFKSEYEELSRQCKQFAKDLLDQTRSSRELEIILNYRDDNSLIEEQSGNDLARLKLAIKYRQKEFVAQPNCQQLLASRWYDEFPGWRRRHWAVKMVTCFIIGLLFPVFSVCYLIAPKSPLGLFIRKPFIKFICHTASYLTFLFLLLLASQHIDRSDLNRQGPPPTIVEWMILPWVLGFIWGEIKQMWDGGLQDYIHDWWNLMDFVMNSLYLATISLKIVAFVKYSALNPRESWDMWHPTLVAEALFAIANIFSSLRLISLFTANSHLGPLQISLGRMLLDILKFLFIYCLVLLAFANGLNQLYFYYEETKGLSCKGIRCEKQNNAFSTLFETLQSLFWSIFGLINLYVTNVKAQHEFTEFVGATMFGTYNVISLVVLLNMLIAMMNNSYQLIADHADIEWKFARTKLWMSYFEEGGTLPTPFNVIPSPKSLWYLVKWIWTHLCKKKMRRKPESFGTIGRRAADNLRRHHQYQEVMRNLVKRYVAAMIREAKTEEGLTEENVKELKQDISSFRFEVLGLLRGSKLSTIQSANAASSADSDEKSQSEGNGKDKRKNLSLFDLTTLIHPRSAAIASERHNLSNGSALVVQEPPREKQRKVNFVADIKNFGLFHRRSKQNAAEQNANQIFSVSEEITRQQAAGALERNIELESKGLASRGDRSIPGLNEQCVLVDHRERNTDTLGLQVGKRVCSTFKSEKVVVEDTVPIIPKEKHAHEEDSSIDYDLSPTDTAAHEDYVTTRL

[9] = molecular target: T2, Corticotropin-releasing factor receptor 2/Corticotropin-releasing factor-binding protein (Homo sapiens, UniProt P24387+Q13324); experiment: Dose Response confirmation of uHTS hits for small molecule antagonists of the CRF-binding protein and CRF-R2 receptor complex.; type: functional; conditions: read-out: IC50_Mean
T2 sequence (Q13324 whole entry): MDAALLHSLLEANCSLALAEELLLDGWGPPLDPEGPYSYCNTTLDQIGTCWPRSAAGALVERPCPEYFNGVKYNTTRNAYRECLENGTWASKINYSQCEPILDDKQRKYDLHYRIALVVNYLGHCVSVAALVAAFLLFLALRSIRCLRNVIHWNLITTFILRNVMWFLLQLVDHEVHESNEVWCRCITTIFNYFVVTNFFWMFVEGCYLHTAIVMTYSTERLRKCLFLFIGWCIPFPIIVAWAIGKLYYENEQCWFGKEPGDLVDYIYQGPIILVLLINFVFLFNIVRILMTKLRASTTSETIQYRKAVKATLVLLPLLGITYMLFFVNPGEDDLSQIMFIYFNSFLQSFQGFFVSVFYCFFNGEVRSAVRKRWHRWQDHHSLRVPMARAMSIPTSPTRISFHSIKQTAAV
T2 sequence (P24387 whole entry): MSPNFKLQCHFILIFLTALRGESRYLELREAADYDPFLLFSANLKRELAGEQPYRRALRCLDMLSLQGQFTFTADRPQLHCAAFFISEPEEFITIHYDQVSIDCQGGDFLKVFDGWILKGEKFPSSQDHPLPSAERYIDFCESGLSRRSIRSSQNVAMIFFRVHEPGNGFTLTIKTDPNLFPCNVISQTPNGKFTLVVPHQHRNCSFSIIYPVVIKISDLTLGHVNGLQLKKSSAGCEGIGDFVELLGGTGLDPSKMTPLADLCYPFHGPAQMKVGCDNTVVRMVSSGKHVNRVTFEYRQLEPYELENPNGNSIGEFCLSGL

[10] = molecular target: T2, Corticotropin-releasing factor receptor 2/Corticotropin-releasing factor-binding protein; experiment: activators of CRF receptor 2 with binding protein – uHTS hits, confirmation (AID 602473); type: functional; conditions: read-out: EC50_Mean
[11] = blockers of CRF-binding protein–CRF-R2 complex – cell-based, uHTS hits, 384-well, dose response (AID 651639); type: functional, Homo sapiens; conditions: read-out: IC50_Mean
Genome polyprotein = Genome polyprotein (dengue virus type 2, UniProt P29990); experiment: flavivirus cap methylation enzyme inhibition – biochemical, confirmation dose response, primary screen (AID 588689); type: functional
Chain of Genome polyprotein (P29990 2492-3391 limits assumed): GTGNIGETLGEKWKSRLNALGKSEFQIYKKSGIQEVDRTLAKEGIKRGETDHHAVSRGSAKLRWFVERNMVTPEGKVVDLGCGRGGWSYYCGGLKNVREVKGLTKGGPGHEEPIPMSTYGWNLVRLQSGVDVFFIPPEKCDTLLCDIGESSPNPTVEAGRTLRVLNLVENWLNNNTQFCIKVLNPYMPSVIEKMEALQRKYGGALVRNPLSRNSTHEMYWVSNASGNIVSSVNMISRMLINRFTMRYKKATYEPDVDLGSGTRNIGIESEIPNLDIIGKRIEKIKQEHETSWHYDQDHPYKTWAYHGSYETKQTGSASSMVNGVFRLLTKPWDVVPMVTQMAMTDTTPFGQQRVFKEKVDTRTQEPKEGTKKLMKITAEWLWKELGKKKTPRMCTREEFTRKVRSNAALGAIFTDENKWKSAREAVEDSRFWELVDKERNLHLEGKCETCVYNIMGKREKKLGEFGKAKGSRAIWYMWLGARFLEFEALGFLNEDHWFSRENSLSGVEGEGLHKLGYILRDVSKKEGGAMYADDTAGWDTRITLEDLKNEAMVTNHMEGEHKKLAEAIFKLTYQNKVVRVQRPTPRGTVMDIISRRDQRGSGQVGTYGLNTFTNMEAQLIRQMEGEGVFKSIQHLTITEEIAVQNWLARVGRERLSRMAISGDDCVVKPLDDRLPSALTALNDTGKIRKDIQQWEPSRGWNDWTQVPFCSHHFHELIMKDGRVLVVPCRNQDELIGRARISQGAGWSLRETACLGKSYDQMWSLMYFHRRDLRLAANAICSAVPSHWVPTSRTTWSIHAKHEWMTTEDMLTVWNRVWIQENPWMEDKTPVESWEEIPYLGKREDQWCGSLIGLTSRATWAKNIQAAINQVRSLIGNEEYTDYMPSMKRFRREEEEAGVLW

[12] = molecular target: T3, Polyadenylate-binding protein 1 (Homo sapiens, UniProt P11940); experiment: MLLE binding blockers, Cy5 peptide tracer – biochemical, fluorescence polarization, Cy5-PAM2 peptide, secondary, miRNA deadenylation inhibitor project, dose response (AID 602260); type: functional; conditions: read-out: IC50_Mean
T3 sequence (P11940 whole entry, the tested form may be a part): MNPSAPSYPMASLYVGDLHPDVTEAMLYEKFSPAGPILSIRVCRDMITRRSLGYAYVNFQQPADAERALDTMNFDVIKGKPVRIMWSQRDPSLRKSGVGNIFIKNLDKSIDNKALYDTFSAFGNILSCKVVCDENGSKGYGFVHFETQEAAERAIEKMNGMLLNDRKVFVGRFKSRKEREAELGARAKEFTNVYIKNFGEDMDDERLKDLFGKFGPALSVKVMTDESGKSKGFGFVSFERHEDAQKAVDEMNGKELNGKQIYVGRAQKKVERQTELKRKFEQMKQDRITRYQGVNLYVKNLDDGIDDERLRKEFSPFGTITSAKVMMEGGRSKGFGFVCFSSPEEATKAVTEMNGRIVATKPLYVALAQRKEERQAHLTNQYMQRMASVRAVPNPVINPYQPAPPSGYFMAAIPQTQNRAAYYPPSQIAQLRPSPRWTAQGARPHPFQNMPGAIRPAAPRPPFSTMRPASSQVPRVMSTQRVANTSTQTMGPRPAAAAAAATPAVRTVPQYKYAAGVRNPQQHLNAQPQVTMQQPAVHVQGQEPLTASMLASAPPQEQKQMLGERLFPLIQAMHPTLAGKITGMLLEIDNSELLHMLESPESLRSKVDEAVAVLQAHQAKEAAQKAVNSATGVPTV

[13] = molecular target: T3, Polyadenylate-binding protein 1; experiment: MLLE domain peptide-binding blockers, IC50 – biochemical, fluorescence polarization, FITC-PAM2 peptide, dose response (AID 602259); type: functional; conditions: read-out: IC50_Mean
BJ [14] = experiment: BJ-TERT fibroblast viability loss – cell-based, RAS-independent, luminescence, dose response (AID 1933); type: functional; conditions: Homo sapiens
BJ [15] = experiment: cells; type: functional, cell-based; conditions: Homo sapiens
BJ [16] = experiment: BJ-TERT-LT-ST fibroblast viability loss – cell-based, RAS-independent, luminescence, dose response (AID 1935); type: functional; conditions: Homo sapiens;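 note: BJ fibroblasts immortalized with TERT plus LT and ST oncogenes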
[17] = DRD fibroblast viability loss – cell-based, non-viral oncogenic, luminescence, dose response (AID 1934); type: functional; conditions: Homo sapiens
[18] = HEK-293T viability loss after treatment – luminescence, T-cell screen hits, cytotoxicity control for TCR NF-kB inhibitor project, dose response (AID 489026); type: functional, cell-based;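 note: cells exposed to compound about 14 hours before the viability readout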
BJ [19] = experiment: growth inhibition of engineered Ras-driven BJ cells – cell-based, alamar blue fluorescence, cherrypicked samples, dose response (AID 2631); type: functional; conditions: Homo sapiens;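 note: confirmatory dose-response assay in RAS-dependent BJ fibroblasts engineered with TERT, LT and ST, with cytotoxicity read by fluorescence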
Leucine aminopeptidase = molecular target: T4, Leucine aminopeptidase (Plasmodium falciparum 3D7, UniProt Q8IL11); experiment: P. falciparum M17LAP inhibitors, primary screen, biochemical, fluorogenic H-Leu-NHMec substrate, 1536-well (AID 1619); type: functional
T4 sequence (Q8IL11 whole entry): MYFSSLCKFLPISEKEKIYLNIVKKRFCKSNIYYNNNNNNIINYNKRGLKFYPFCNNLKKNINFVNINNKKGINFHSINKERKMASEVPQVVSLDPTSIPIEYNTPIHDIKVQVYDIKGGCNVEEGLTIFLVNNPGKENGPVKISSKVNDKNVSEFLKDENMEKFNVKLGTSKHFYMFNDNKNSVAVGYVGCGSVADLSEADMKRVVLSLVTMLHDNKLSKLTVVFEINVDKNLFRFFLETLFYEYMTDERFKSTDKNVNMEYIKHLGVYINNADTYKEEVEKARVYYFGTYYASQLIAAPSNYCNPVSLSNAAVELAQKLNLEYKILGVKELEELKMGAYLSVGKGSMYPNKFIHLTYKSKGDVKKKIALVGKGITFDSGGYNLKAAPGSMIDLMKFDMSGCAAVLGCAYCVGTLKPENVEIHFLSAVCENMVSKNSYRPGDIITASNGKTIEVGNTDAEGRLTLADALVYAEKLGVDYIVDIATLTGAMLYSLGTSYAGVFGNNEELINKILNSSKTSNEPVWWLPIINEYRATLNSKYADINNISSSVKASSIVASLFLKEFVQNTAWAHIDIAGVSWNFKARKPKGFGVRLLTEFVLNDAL

Fatty acid synthase [20] = molecular target: T5, Fatty acid synthase (Homo sapiens, UniProt P49327); experiment: inhibition of human FAS-TE enzyme activity – biochemical, endpoint fluorescence intensity, uHTS hits, dose response (AID 624327); type: functional;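 note: fluorescence from hydrolysis of an O-methyl fluorescein acyl ester substrate by the enzyme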
T5 sequence (P49327 whole entry): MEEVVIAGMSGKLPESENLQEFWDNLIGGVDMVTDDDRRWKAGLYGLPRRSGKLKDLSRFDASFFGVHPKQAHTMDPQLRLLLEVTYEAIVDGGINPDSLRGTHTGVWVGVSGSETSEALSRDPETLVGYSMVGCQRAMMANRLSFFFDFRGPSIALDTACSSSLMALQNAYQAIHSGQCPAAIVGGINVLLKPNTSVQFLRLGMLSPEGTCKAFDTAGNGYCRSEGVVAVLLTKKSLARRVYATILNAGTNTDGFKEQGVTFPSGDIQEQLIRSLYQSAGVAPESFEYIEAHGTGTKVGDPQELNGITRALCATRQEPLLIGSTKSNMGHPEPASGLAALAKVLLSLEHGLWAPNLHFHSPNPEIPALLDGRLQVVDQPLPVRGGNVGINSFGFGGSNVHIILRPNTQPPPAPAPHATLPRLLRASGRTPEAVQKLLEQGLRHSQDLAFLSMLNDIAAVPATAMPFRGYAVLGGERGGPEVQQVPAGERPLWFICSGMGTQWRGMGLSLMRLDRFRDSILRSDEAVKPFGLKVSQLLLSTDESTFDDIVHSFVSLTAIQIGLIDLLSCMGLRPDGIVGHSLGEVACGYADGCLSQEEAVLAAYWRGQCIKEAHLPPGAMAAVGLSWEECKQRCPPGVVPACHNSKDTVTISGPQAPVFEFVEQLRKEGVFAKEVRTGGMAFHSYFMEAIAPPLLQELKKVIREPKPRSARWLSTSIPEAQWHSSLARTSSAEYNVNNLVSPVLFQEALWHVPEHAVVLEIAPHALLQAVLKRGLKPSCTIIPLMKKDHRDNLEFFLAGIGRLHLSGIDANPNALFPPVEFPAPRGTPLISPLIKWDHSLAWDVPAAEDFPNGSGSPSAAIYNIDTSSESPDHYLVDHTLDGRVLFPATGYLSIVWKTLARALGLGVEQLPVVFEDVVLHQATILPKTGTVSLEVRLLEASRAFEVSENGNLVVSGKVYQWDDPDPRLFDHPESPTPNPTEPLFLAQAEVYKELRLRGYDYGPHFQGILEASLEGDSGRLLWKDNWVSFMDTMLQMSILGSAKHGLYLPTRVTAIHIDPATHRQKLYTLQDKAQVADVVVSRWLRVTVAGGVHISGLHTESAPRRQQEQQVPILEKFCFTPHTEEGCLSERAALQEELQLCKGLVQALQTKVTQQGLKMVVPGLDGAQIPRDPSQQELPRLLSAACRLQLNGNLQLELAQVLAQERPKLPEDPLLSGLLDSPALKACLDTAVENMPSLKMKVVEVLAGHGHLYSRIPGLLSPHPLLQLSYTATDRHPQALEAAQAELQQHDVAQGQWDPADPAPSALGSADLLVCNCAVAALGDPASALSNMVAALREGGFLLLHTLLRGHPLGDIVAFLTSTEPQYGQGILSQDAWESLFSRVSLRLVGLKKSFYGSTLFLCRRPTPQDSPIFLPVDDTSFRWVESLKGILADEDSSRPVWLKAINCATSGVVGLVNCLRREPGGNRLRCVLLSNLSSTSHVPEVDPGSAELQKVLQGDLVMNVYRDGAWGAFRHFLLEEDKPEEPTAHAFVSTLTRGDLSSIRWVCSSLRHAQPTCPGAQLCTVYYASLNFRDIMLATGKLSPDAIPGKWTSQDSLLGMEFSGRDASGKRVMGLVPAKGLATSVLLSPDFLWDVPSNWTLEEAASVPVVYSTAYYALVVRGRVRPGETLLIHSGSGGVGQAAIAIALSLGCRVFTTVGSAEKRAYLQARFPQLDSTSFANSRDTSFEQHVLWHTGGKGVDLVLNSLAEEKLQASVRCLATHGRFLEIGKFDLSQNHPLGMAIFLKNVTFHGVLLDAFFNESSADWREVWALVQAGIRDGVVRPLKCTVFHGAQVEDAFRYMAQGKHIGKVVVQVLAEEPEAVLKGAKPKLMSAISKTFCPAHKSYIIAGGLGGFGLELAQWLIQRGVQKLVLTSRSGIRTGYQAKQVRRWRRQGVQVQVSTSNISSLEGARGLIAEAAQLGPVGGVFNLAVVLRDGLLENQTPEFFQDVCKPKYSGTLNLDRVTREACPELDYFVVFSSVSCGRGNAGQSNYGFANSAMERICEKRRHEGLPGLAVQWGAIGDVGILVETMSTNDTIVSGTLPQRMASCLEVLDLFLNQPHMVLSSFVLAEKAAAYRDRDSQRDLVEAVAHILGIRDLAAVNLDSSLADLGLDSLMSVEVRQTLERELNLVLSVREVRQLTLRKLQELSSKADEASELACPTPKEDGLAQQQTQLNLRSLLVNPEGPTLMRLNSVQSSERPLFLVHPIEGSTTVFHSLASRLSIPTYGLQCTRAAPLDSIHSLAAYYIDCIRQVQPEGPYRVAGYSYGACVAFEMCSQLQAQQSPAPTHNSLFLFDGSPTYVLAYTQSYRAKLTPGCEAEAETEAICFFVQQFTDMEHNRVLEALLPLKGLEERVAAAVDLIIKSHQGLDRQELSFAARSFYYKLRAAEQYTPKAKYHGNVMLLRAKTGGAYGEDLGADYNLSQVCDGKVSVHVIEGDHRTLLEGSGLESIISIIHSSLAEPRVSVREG

Fatty acid synthase [21] = molecular target: T5, Fatty acid synthase; experiment: inhibition of human FAS-TE enzyme activity – biochemical, kinetic fluorescence intensity, dose response (AID 624326); type: functional;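 note: rate of fluorescence rise from hydrolysis of a fluorogenic O-methyl fluorescein ester substrate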
[22] = molecular target: T6, Probable nicotinate-nucleotide adenylyltransferase (Staphylococcus aureus (strain N315), UniProt P65502); type: functional, Staphylococcus aureus subsp. aureus N315;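 for IC50 Mean: confirmatory dose-response retesting of NadD inhibitor hits first found in an ultra-high-throughput screen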
T6 sequence (P65502 whole entry): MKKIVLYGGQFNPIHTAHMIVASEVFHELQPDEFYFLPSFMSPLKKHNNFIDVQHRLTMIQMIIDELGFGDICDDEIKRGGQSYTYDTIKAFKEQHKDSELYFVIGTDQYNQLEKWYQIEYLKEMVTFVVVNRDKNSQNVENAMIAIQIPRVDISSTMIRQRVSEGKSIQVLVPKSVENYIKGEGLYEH

[23] = molecular target: T6, Probable nicotinate-nucleotide adenylyltransferase; type: functional, Staphylococcus aureus subsp. aureus N315; conditions: read-out: IC50_Mean

CCS(=O)(=O)c1nnnn1-c1ccccc1S(C)(=O)=O
EC50 (HEK293 [1]): 11.7 µM (active) | IC50 (HEK293 [2]): 6.55 µM (active) | EC50 (H4): > 120 µM (not active) | IC50 (HEK293 [3]): > 20 µM (inactive) | EC50 [4]: > 20 µM (inactive) | IC50 (HEK293 [5]): 9.2 µM (active) | IC50 (HEK293 [6]): > 20 µM (inactive) | AC50 (HEK293 [7]): 11.3 µM (active)

COc1ccc(Cl)cc1NC(=O)CN(C)S(=O)(=O)c1cccs1
AC50 (HEK293 [7]): 51.2 µM (active)

Cc1cc([N+](=O)[O-])ccc1NCc1ccco1
EC50 [8]: 5.96 µM (active) | IC50 [9]: 23.1 µM (active) | EC50 [10]: > 53 µM (inactive) | IC50 [11]: 7.36 µM (active)

COc1ccc(Nc2cc(Cl)ccc2C(=O)O)cn1
IC50 (Genome polyprotein): 63.5 µM (active) | IC50 [12]: > 66 µM (inactive) | IC50 [13]: 52.2 µM (inactive)

Cc1ccc2[nH]c3c(c2c1)CCCC3NC(=O)CCl (stereo unspecified)
EC50 (BJ [14]): 13.8 µM (active) | EC50 (BJ [15]): 8.7 µM (active) | EC50 (BJ [16]): > 150 µM (inconclusive) | EC50 [17]: 7.41 µM (inconclusive) | IC50 [18]: > 80 µM (inactive) | AC50 (HEK293 [7]): 2.36 µM (active) | EC50 (BJ [19]): 0.565 µM (active)

COc1ccc(NC(=O)CN(C)S(=O)(=O)c2ccc3nc(O)oc3c2)cc1
EC50 (BJ [14]): > 150 µM (not active) | EC50 (BJ [15]): > 150 µM (not active) | EC50 (BJ [16]): 47.8 µM (active) | EC50 [17]: > 150 µM (not active) | EC50 (BJ [19]): > 133 µM (inactive)

O=C(COc1ccc2ccccc2c1)Nc1cccc(C(=O)Nc2ccccc2C(=O)O)c1
IC50 (Leucine aminopeptidase): 8.71 µM (active) | IC50 [9]: 2.55 µM (active) | EC50 [10]: > 53 µM (inactive) | IC50 [11]: 7.44 µM (active)

CCOC(=O)c1sc(N2C(=O)C(O)=C(C(=O)c3ccco3)C2c2ccc([N+](=O)[O-])cc2)nc1C (stereo unspecified)
IC50 (Genome polyprotein): 38.1 µM (active) | IC50 (Fatty acid synthase [20]): 5.46 µM (active) | IC50 (Fatty acid synthase [21]): 7.89 µM (active)

O=C(c1ccc(COc2ccccc2Cl)o1)N1CCCC1
AC50 (HEK293 [7]): 77.8 µM (active)

CCC(=O)N(Cc1c(C)nn(-c2ccccc2)c1Cl)c1ccc(Cl)cc1
IC50 [9]: 7.02 µM (active) | EC50 [10]: > 53 µM (inactive) | IC50 [11]: 19.8 µM (active)

N#C/C(=C/c1cn(-c2ccccc2)nc1-c1cccc(S(=O)(=O)N2CCCC2)c1)C(=O)NCc1ccco1
IC50 [22]: 14.4 µM (active) | IC50 [23]: 50.1 µM (active)

O=C(O)CCN1C(=O)/C(=C\c2cccc(OCC(=O)Nc3ccc(Cl)cc3)c2)SC1=S
IC50 (Genome polyprotein): 34.9 µM (active)

O=C(O)/C(=C\c1c(C(=O)O)[nH]c2cc(Cl)cc(Cl)c12)c1ccccc1
IC50 (Genome polyprotein): 75.5 µM (active)

COC(=O)c1cc(C#N)c(NCc2ccccc2)nc1C
IC50 [9]: 8.02 µM (active) | EC50 [10]: > 53 µM (inactive) | IC50 [11]: > 20 µM (inactive)
